Experimental data reported in ChEMBL document CHEMBL3045522, “Responses of dry beans (Phaseolus vulgaris L.) to sulfentrazone” (Crop Prot, 2007).

Columns and labels:
Type in all cases: organism-based
[1] = system: Phaseolus vulgaris; assay: Phytotoxicity against Phaseolus vulgaris (dry bean) assessed as visual crop injury at 840 g a.i./ha applied pre-emergence measured at 14 days post-emergence relative to control; settings: in vivo, other, 336 h
[2] = system: Phaseolus vulgaris; assay: Phytotoxicity against Phaseolus vulgaris (dry bean) assessed as visual crop injury at 840 g a.i./ha applied pre-emergence measured at 7 days post-emergence relative to control; settings: in vivo, other, 168 h
[3] = system: Phaseolus vulgaris; assay: Phytotoxicity against Phaseolus vulgaris (dry bean) assessed as visual crop injury at 420 g a.i./ha applied pre-emergence measured at 7 days post-emergence relative to control; settings: in vivo, other, 168 h
[4] = system: Phaseolus vulgaris; assay: Phytotoxicity against Phaseolus vulgaris (White dry beans) assessed as plant height at 840 g a.i./ha applied pre-emergence measured at 28 days post-emergence (reference value: 31 +/- 2 cm); settings: in vivo, other, 672 h
[5] = system: Phaseolus vulgaris; assay: Phytotoxicity against Phaseolus vulgaris (Cranberry dry beans) assessed as plant height at 840 g a.i./ha applied pre-emergence measured at 28 days post-emergence (reference value: 33 +/- 1 cm); settings: in vivo, other, 672 h
[6] = system: Phaseolus vulgaris; assay: Phytotoxicity against Phaseolus vulgaris (Yellow eye dry beans) assessed as plant height at 420 g a.i./ha applied pre-emergence measured at 28 days post-emergence (reference value: 33 +/- 1 cm); settings: in vivo, other, 672 h
[7] = system: Phaseolus vulgaris; assay: Phytotoxicity against Phaseolus vulgaris (Pinto dry beans) assessed as visual crop injury at 420 to 840 g a.i./ha applied pre-emergence measured at 28 days post-emergence relative to control; settings: in vivo, other, 672 h
[8] = system: Phaseolus vulgaris; assay: Phytotoxicity against Phaseolus vulgaris (Otebo dry beans) assessed as visual crop injury at 420 to 840 g a.i./ha applied pre-emergence measured at 28 days post-emergence relative to control; settings: in vivo, other, 672 h
[9] = system: Phaseolus vulgaris; assay: Phytotoxicity against Phaseolus vulgaris (Kidney dry beans) assessed as visual crop injury at 420 to 840 g a.i./ha applied pre-emergence measured at 28 days post-emergence relative to control; settings: in vivo, other, 672 h
[10] = system: Phaseolus vulgaris; assay: Phytotoxicity against Phaseolus vulgaris (Cranberry dry beans) assessed as visual crop injury at 420 to 840 g a.i./ha applied pre-emergence measured at 28 days post-emergence relative to control; settings: in vivo, other, 672 h
[11] = system: Phaseolus vulgaris; assay: Phytotoxicity against Phaseolus vulgaris (dry bean) assessed as visual crop injury at 840 g a.i./ha applied pre-emergence measured at 28 days post-emergence relative to control; settings: in vivo, other, 672 h
[12] = system: Phaseolus vulgaris; assay: Phytotoxicity against Phaseolus vulgaris (Black dry bean) assessed as reduction in shoot dry weight applied pre-emergence relative to control; design: scale not given: the % may be the effect or the level left; settings: in vivo
[13] = system: Phaseolus vulgaris; assay: Phytotoxicity against Phaseolus vulgaris (Pinto dry beans) assessed as plant height at 420 g a.i./ha applied pre-emergence measured at 28 days post-emergence (reference value: 32 +/- 1 cm); settings: in vivo, other, 672 h
[14] = system: Phaseolus vulgaris; assay: Phytotoxicity against Phaseolus vulgaris (Cranberry dry beans) assessed as plant height at 420 g a.i./ha applied pre-emergence measured at 28 days post-emergence (reference value: 33 +/- 1 cm); settings: in vivo, other, 672 h
[15] = system: Phaseolus vulgaris; assay: Phytotoxicity against Phaseolus vulgaris (Brown dry beans) assessed as plant height at 420 g a.i./ha applied pre-emergence measured at 28 days post-emergence (reference value: 33 +/- 1 cm); settings: in vivo, other, 672 h
[16] = system: Phaseolus vulgaris; assay: Phytotoxicity against Phaseolus vulgaris (Black dry beans) assessed as plant height at 420 g a.i./ha applied pre-emergence measured at 28 days post-emergence (reference value: 28 +/- 1 cm); settings: in vivo, other, 672 h
[17] = system: Phaseolus vulgaris; assay: Phytotoxicity against Phaseolus vulgaris (dry beans) assessed as change in seed moisture content at 420 to 840 g a.i./ha applied pre-emergence relative to control; settings: in vivo, other
[18] = system: Phaseolus vulgaris; assay: Phytotoxicity against Phaseolus vulgaris (Pinto dry beans) assessed as yield at 840 g a.i./ha applied pre-emergence (reference value: 3.1 +/- 0.1 tons/ha); settings: in vivo, other
[19] = system: Phaseolus vulgaris; assay: Phytotoxicity against Phaseolus vulgaris (Otebo dry beans) assessed as reduction in yield at 840 g a.i./ha applied pre-emergence relative to control; design: scale not given: the % may be the effect or the level left; settings: in vivo, other
[20] = system: Phaseolus vulgaris; assay: Phytotoxicity against Phaseolus vulgaris (Kidney dry beans) assessed as yield at 840 g a.i./ha applied pre-emergence (reference value: 1.9 +/- 0.1 tons/ha); settings: in vivo, other
[21] = system: Phaseolus vulgaris; assay: Phytotoxicity against Phaseolus vulgaris (Cranberry dry beans) assessed as reduction in yield at 840 g a.i./ha applied pre-emergence relative to control; design: scale not given: the % may be the effect or the level left; settings: in vivo, other
[22] = system: Phaseolus vulgaris; assay: Phytotoxicity against Phaseolus vulgaris (Black dry beans) assessed as reduction in yield at 840 g a.i./ha applied pre-emergence relative to control; design: scale not given: the % may be the effect or the level left; settings: in vivo, other
[23] = system: Phaseolus vulgaris; assay: Phytotoxicity against Phaseolus vulgaris (Yellow eye dry beans) assessed as yield at 420 g a.i./ha applied pre-emergence (reference value: 2 +/- 0.1 tons/ha); settings: in vivo, other
[24] = system: Phaseolus vulgaris; assay: Phytotoxicity against Phaseolus vulgaris (Brown dry beans) assessed as yield at 420 g a.i./ha applied pre-emergence (reference value: 2.3 +/- 0.1 tons/ha); settings: in vivo, other
[25] = system: Phaseolus vulgaris; assay: Phytotoxicity against Phaseolus vulgaris (Otebo dry beans) assessed as reduction in shoot dry weight at 840 g a.i./ha applied pre-emergence measured at 42 days post-emergence relative to control; design: scale not given: the % may be the effect or the level left; settings: in vivo, other, 1008 h
[26] = system: Phaseolus vulgaris; assay: Phytotoxicity against Phaseolus vulgaris (Brown dry beans) assessed as shoot dry weight at 840 g a.i./ha applied pre-emergence measured at 42 days post-emergence (reference value: 123 +/- 7 g/m); settings: in vivo, other, 1008 h
[27] = system: Phaseolus vulgaris; assay: Phytotoxicity against Phaseolus vulgaris (Cranberry dry beans) assessed as reduction in shoot dry weight at 840 g a.i./ha applied pre-emergence measured at 42 days post-emergence relative to control; design: scale not given: the % may be the effect or the level left; settings: in vivo, other, 1008 h
[28] = system: Phaseolus vulgaris; assay: Phytotoxicity against Phaseolus vulgaris (Black dry beans) assessed as reduction in shoot dry weight at 840 g a.i./ha applied pre-emergence measured at 42 days post-emergence relative to control; design: scale not given: the % may be the effect or the level left; settings: in vivo, other, 1008 h
[29] = system: Phaseolus vulgaris; assay: Phytotoxicity against Phaseolus vulgaris (Kidney dry beans) assessed as shoot dry weight at 420 g a.i./ha applied pre-emergence measured at 42 days post-emergence (reference value: 133 +/- 8 g/m); settings: in vivo, other, 1008 h
[30] = system: Phaseolus vulgaris; assay: Phytotoxicity against Phaseolus vulgaris (Yellow eye dry beans) assessed as plant height at 840 g a.i./ha applied pre-emergence measured at 28 days post-emergence (reference value: 33 +/- 1 cm); settings: in vivo, other, 672 h

## Cc1nn(-c2cc(NS(C)(=O)=O)c(Cl)cc2Cl)c(=O)n1C(F)F [SULFENTRAZONE]
[1]
  Activity: 30%
[2]
  Activity: 26%
[3]
  Activity: 9%
[4]
  Activity: 20 cm
[5]
  Activity: 21 cm
[6]
  Activity: 31 cm
[7]
  Activity: 9.2%
[8]
  Activity: 13.9%
[9]
  Activity: 15.9%
[10]
  Activity: 17.6%
[11]
  Activity: 22%
[12]
  Activity: 16%
[13]
  Activity: 30 cm
[14]
  Activity: 28 cm
[15]
  Activity: 31 cm
[16]
  Activity: 26 cm
[17]
  Activity: Non-toxic
[18]
  Crop_yield: 2.7 tons/ha
[19]
  Activity: 26%
[20]
  Crop_yield: 1.6 tons/ha
[21]
  Activity: 44%
[22]
  Activity: 47%
[23]
  Crop_yield: 2 tons/ha
[24]
  Crop_yield: 2.3 tons/ha
[25]
  Activity: 36%
[26]
  Activity: 121 g/m
[27]
  Activity: 40%
[28]
  Activity: 35%
[29]
  Activity: 128 g/m
[30]
  Activity: 25 cm
